Assays:
wheat = experiment: Test A postemergence; type: in vivo, Triticum aestivum; details: 0 to 100 scale where 0 is no effect and 100 is complete control
In short: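 Visual injury scored 0–100 (100 = complete control) against untreated controls about 10 days after treatment in a greenhouse. Test chemicals, formulated with surfactant in non-phytotoxic solvent, were sprayed on soil preemergence or on 2-10 cm, one- to two-leaf plants postemergence.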

sedge, umbrella = experiment: Test B flooded paddy test; type: in vivo, Cyperus difformis; details: Flood, 250 g ai/ha, 0 to 100 scale where 0 is no effect and 100 is complete control
In short: (§1)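 Greenhouse flooded-pot test: compounds dosed into 3 cm standing water over 2-leaf plants, flood held constant. Rated visually after 13–15 days on 0–100 (complete control = 100); a dash marks no test result.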

Heteranthera limosa = experiment: Test B flooded paddy test; type: in vivo; details: Flood, 250 g ai/ha, 0 to 100 scale where 0 is no effect and 100 is complete control
In short: as §1

blackgrass = experiment: Test C preemergence; type: in vivo, Alopecurus myosuroides
In short: (§2)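 Sown in loam/sand → sprayed pre-emergence; or grown to 1–4 leaves in peat mix → sprayed post-emergence. Same solvent/surfactant formulation both ways. Greenhouse 13–15 d. Score 0–100 visual.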

Italian ryegrass = experiment: Test C preemergence; type: in vivo, Lolium multiflorum; details: preemergence
In short: as §2

wheat, winter = experiment: Test C preemergence; type: in vivo, Triticum aestivum; details: preemergence
In short: as §2

johnsongrass = experiment: Test C preemergence; type: in vivo, Sorghum halepense; details: preemergence
In short: as §2

ragweed = experiment: Test C preemergence; type: in vivo, Ambrosia elatior; details: preemergence
In short: as §2

velvetleaf = experiment: Test C preemergence; type: in vivo, Abutilon theophrasti; details: preemergence
In short: as §2

pigweed = experiment: Test C postemergence; type: in vivo, Amaranthus retroflexus
In short: as §2

waterhemp = experiment: Test C postemergence; type: in vivo, Amaranthus rudis
In short: as §2

[1] = 16 g ai/ha, scale 0 to 100 (0 no effect, 100 complete control)
[2] = 62 g ai/ha, scale 0 (no effect) to 100 (complete control)
[3] = 125 g ai/ha, scale 0 (no effect) to 100 (complete control)
[4] = 16 g ai/ha, postemergence, 0 is no effect, 100 is complete control
[5] = 125 g ai/ha, postemergence, visual rating, scale 0 to 100 (0 no effect, 100 complete control)
[6] = Postemergence, 62 g ai/ha, scale 0 to 100 (0 no effect, 100 complete control)

**Q.** For Cc1cnc(Oc2cccc(C#N)c2-n2cc(I)cn2)nc1 [Compound 136], which “Wheat plant response rating” value (wheat; 125 g ai/ha) is on record?
**A.** 0

**Q.** And the “Plant response rating, Wheat” value (wheat; 500 g ai/ha)?
**A.** 50

**Q.** What about the “Plant response rating, Sedge, Umbrella” value (sedge, umbrella) of the same molecule?
**A.** 70

**Q.** What about the “Plant response rating, Ducksalad” value (Heteranthera limosa) of the same molecule?
**A.** 70

**Q.** And the “Blackgrass plant response rating” value (blackgrass; 16 g ai/ha, preemergence, scale 0 to 100 (0 no effect, 100 complete control))?
**A.** 0

**Q.** What about the “Blackgrass plant response rating” value (blackgrass; 62 g ai/ha, preemergence, scale 0 (no effect) to 100 (complete control)) of the same molecule?
**A.** 75

**Q.** What about the “Blackgrass plant response rating” value (blackgrass; 125 g ai/ha, preemergence, scale 0 (no effect) to 100 (complete control)) of the same molecule?
**A.** 80

**Q.** What about the “Plant response rating, Blackgrass” value (blackgrass; Preemergence, 31 g ai/ha, scale 0 to 100, 0 no effect, 100 complete control) of the same molecule?
**A.** 0

**Q.** What about the “Ryegrass, Italian plant response rating” value (Italian ryegrass; [1]) of the same molecule?
**A.** 0

**Q.** And the “Ryegrass, Italian plant response rating” value (Italian ryegrass; [2])?
**A.** 0

**Q.** And the “Ryegrass, Italian plant response rating” value (Italian ryegrass; [3])?
**A.** 15

**Q.** And the “Wheat plant response rating” value (wheat, winter; [1])?
**A.** 0

**Q.** And the “Wheat plant response rating” value (wheat, winter; [2])?
**A.** 0

**Q.** And the “Wheat plant response rating” value (wheat, winter; [3])?
**A.** 0

**Q.** And the “Johnsongrass plant response rating” value (johnsongrass; [1])?
**A.** 0

**Q.** And the “Johnsongrass plant response rating” value (johnsongrass; [2])?
**A.** 20

**Q.** What about the “Johnsongrass plant response rating” value (johnsongrass; [3]) of the same molecule?
**A.** 60

**Q.** What about the “Ragweed plant response rating” value (ragweed; [1]) of the same molecule?
**A.** 0

**Q.** What about the “Ragweed plant response rating” value (ragweed; [2]) of the same molecule?
**A.** 20

**Q.** What about the “Ragweed plant response rating” value (ragweed; [3]) of the same molecule?
**A.** 70

**Q.** What about the “Velvetleaf plant response rating” value (velvetleaf; [1]) of the same molecule?
**A.** 5

**Q.** And the “Velvetleaf plant response rating” value (velvetleaf; [2])?
**A.** 30

**Q.** And the “Velvetleaf plant response rating” value (velvetleaf; [3])?
**A.** 90

**Q.** What about the “Plant response rating (0 to 100), Pigweed” value (pigweed; [4]) of the same molecule?
**A.** 45

**Q.** What about the “Plant response rating, Pigweed” value (pigweed; [5]) of the same molecule?
**A.** 55

**Q.** And the “Plant response rating, Pigweed” value (pigweed; [6])?
**A.** 55

**Q.** What about the “Plant response rating (0 to 100), Waterhemp” value (waterhemp; [4]) of the same molecule?
**A.** 40

**Q.** And the “Plant response rating, Waterhemp” value (waterhemp; [5])?
**A.** 30

**Q.** What about the “Plant response rating, Waterhemp” value (waterhemp; [6]) of the same molecule?
**A.** 35

**Q.** How did the plant injury at 125 g/ha (wheat; Triticum aestivum, post-emergence, 240 h, 125 g ai/ha, read-out: Wheat plant response rating) turn out when FC(F)(F)COc1cnn(-c2ccccc2Oc2ncc(Cl)cn2)c1 [Compound 138, 5-chloro-2-[2-[4-(2,2,2-trifluoroethoxy)-1H-pyrazol-1-yl]phenoxy]pyrimidine] was run?
**A.** 50%

**Q.** What about the plant injury at 500 g/ha (wheat; Triticum aestivum, post-emergence, 240 h, 500 g ai/ha, read-out: Plant response rating, Wheat) of the same molecule?
**A.** 90%

**Q.** And the pest or weed control at 250 g/ha (sedge, umbrella; Cyperus difformis, read-out: Plant response rating, Sedge, Umbrella)?
**A.** 75%

**Q.** What about the pest or weed control at 250 g/ha (Heteranthera limosa; Heteranthera limosa, read-out: Plant response rating, Ducksalad) of the same molecule?
**A.** 90%

**Q.** And the pest or weed control at 16 g/ha (blackgrass; Alopecurus myosuroides, pre-emergence, 16 g ai/ha, preemergence, scale 0 to 100 (0 no effect, 100 complete control), read-out: Blackgrass plant response rating)?
**A.** 5%

**Q.** And the pest or weed control at 62 g/ha (blackgrass; Alopecurus myosuroides, pre-emergence, 62 g ai/ha, preemergence, scale 0 (no effect) to 100 (complete control), read-out: Blackgrass plant response rating)?
**A.** 80%

**Q.** And the pest or weed control at 125 g/ha (blackgrass; Alopecurus myosuroides, pre-emergence, 125 g ai/ha, preemergence, scale 0 (no effect) to 100 (complete control), read-out: Blackgrass plant response rating)?
**A.** 90%

**Q.** And the pest or weed control at 31 g/ha (blackgrass; Alopecurus myosuroides, pre-emergence, Preemergence, 31 g ai/ha, scale 0 to 100, 0 no effect, 100 complete control, read-out: Plant response rating, Blackgrass)?
**A.** 20%

**Q.** What about the pest or weed control at 16 g/ha (Italian ryegrass; Lolium multiflorum, pre-emergence, 16 g ai/ha, scale 0 to 100 (0 no effect, 100 complete control), read-out: Ryegrass, Italian plant response rating) of the same molecule?
**A.** 0%

**Q.** And the pest or weed control at 62 g/ha (Italian ryegrass; Lolium multiflorum, pre-emergence, 62 g ai/ha, scale 0 (no effect) to 100 (complete control), read-out: Ryegrass, Italian plant response rating)?
**A.** 20%

**Q.** And the pest or weed control at 125 g/ha (Italian ryegrass; Lolium multiflorum, pre-emergence, 125 g ai/ha, scale 0 (no effect) to 100 (complete control), read-out: Ryegrass, Italian plant response rating)?
**A.** 60%

**Q.** What about the plant injury at 16 g/ha (wheat, winter; Triticum aestivum, pre-emergence, 16 g ai/ha, scale 0 to 100 (0 no effect, 100 complete control), read-out: Wheat plant response rating) of the same molecule?
**A.** 0%

**Q.** And the plant injury at 62 g/ha (wheat, winter; Triticum aestivum, pre-emergence, 62 g ai/ha, scale 0 (no effect) to 100 (complete control), read-out: Wheat plant response rating)?
**A.** 5%

**Q.** And the plant injury at 125 g/ha (wheat, winter; Triticum aestivum, pre-emergence, 125 g ai/ha, scale 0 (no effect) to 100 (complete control), read-out: Wheat plant response rating)?
**A.** 5%

**Q.** What about the pest or weed control at 16 g/ha (johnsongrass; Sorghum halepense, pre-emergence, 16 g ai/ha, scale 0 to 100 (0 no effect, 100 complete control), read-out: Johnsongrass plant response rating) of the same molecule?
**A.** 0%

**Q.** And the pest or weed control at 62 g/ha (johnsongrass; Sorghum halepense, pre-emergence, 62 g ai/ha, scale 0 (no effect) to 100 (complete control), read-out: Johnsongrass plant response rating)?
**A.** 40%

**Q.** What about the pest or weed control at 125 g/ha (johnsongrass; Sorghum halepense, pre-emergence, 125 g ai/ha, scale 0 (no effect) to 100 (complete control), read-out: Johnsongrass plant response rating) of the same molecule?
**A.** 65%

**Q.** What about the pest or weed control at 16 g/ha (ragweed; Ambrosia artemisiifolia, pre-emergence, 16 g ai/ha, scale 0 to 100 (0 no effect, 100 complete control), read-out: Ragweed plant response rating) of the same molecule?
**A.** 0%

**Q.** What about the pest or weed control at 62 g/ha (ragweed; Ambrosia artemisiifolia, pre-emergence, 62 g ai/ha, scale 0 (no effect) to 100 (complete control), read-out: Ragweed plant response rating) of the same molecule?
**A.** 5%

**Q.** What about the pest or weed control at 125 g/ha (ragweed; Ambrosia artemisiifolia, pre-emergence, 125 g ai/ha, scale 0 (no effect) to 100 (complete control), read-out: Ragweed plant response rating) of the same molecule?
**A.** 10%

**Q.** And the pest or weed control at 16 g/ha (velvetleaf; Abutilon theophrasti, pre-emergence, 16 g ai/ha, scale 0 to 100 (0 no effect, 100 complete control), read-out: Velvetleaf plant response rating)?
**A.** 60%

**Q.** What about the pest or weed control at 62 g/ha (velvetleaf; Abutilon theophrasti, pre-emergence, 62 g ai/ha, scale 0 (no effect) to 100 (complete control), read-out: Velvetleaf plant response rating) of the same molecule?
**A.** 98%

**Q.** And the pest or weed control at 125 g/ha (velvetleaf; Abutilon theophrasti, pre-emergence, 125 g ai/ha, scale 0 (no effect) to 100 (complete control), read-out: Velvetleaf plant response rating)?
**A.** 100%

**Q.** What about the pest or weed control at 16 g/ha (pigweed; Amaranthus retroflexus, post-emergence, 16 g ai/ha, postemergence, 0 is no effect, 100 is complete control, read-out: Plant response rating (0 to 100), Pigweed) of the same molecule?
**A.** 60%

**Q.** And the pest or weed control at 125 g/ha (pigweed; Amaranthus retroflexus, post-emergence, 125 g ai/ha, postemergence, visual rating, scale 0 to 100 (0 no effect, 100 complete control), read-out: Plant response rating, Pigweed)?
**A.** 80%

**Q.** And the pest or weed control at 62 g/ha (pigweed; Amaranthus retroflexus, post-emergence, Postemergence, 62 g ai/ha, scale 0 to 100 (0 no effect, 100 complete control), read-out: Plant response rating, Pigweed)?
**A.** 80%

**Q.** What about the pest or weed control at 16 g/ha (waterhemp; Amaranthus tuberculatus, post-emergence, 16 g ai/ha, postemergence, 0 is no effect, 100 is complete control, read-out: Plant response rating (0 to 100), Waterhemp) of the same molecule?
**A.** 60%

**Q.** What about the pest or weed control at 125 g/ha (waterhemp; Amaranthus tuberculatus, post-emergence, 125 g ai/ha, postemergence, visual rating, scale 0 to 100 (0 no effect, 100 complete control), read-out: Plant response rating, Waterhemp) of the same molecule?
**A.** 85%

**Q.** What about the pest or weed control at 62 g/ha (waterhemp; Amaranthus tuberculatus, post-emergence, Postemergence, 62 g ai/ha, scale 0 to 100 (0 no effect, 100 complete control), read-out: Plant response rating, Waterhemp) of the same molecule?
**A.** 75%
